Literature values as cited in publication PMC11954708 (Clinical Pharmacokinetics, 2025).

Legend:
[1] = for Positive FE in vivo: Yes/No; for AUC ratio Observed: fed/fasted in vivo
[2] = total body clearance value

Row | Structure (SMILES) | Positive FE in vivo [1] | AUC ratio Observed [1] | CL [2] | CYP3A4 or UGT substrate? (CYP3A4 or UGT) | CL (po) [2]
1 | NC(=O)N1c2ccccc2C=Cc2ccccc21 [Carbamazepine] | Yes | 1.12 | 2.7 [50] l/h | – | –
2 | COC(=O)[C@H](c1ccccc1Cl)N1CCc2sccc2C1 [Clopidogrel] | Yes | – | 84 [52] l/h | – | –
3 | C[C@H]1O[C@@H](O[C@H]2[C@@H](O)C[C@H](O[C@H]3[C@@H](O)C[C@H](O[C@H]4CC[C@@]5(C)[C@H](CC[C@@H]6[C@@H]5C[C@@H](O)[C@]5(C)[C@@H](C7=CC(=O)OC7)CC[C@]65O)C4)O[C@@H]3C)O[C@@H]2C)C[C@H](O)[C@@H]1O [Digoxin] | – | – | 5.28 [51] l/h | No | –
4 | O=C1Nc2ccc(Cl)cc2[C@@](C#CC2CC2)(C(F)(F)F)O1 [Efavirenz] | Yes | 1.28 | – | – | 9.4 (po) [51] l/h
5 | CCOC(=O)C1=C(C)NC(C)=C(C(=O)OC)C1c1cccc(Cl)c1Cl (centres unmarked) [Felodipine] | No | – | – | – | –
6 | Cc1cccc(Nc2ccccc2C(=O)O)c1C [Mefenamic acid] | No | – | – | No | 21.23 (po) [51] l/h
